According to US11109593B2, “Isoxazolin-5-one derivative and herbicide containing same as active ingredient” (HOKKO CHEMICAL INDUSTRY CO., LTD., priority 2017, dated 2021):

Columns and labels:
Format in all cases: in vivo
Echinochloa crus-galli [1] = assay: Test Example 1: herbicidal effect test by treatment of rice paddy soil (immediately after seeding); conditions: 120 g/10a active ingredient, dry weight vs untreated area, 14 days after treatment
Procedure, shortened: (§1)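 Flooded paddy pot test in a glass greenhouse: emulsion diluted in water, dropped at 120 g a.i. per 10 ares just after sowing, water depth kept about 3 cm. Dry-weight reduction relative to untreated plants is scored at 14 days.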

Scirpus juncoides [2] = assay: as above; conditions: 120 g/10a active ingredient, dry weight vs untreated area, 14 days after treatment
Procedure, shortened: as §1

[3] = system: broad leaf weeds (Lindernia pyxidaria and Monochoria vaginalis); assay: as above; conditions: 120 g/10a active ingredient, dry weight vs untreated area, 14 days after treatment
Procedure, shortened: as §1

Echinochloa crus-galli [4] = assay: Test Example 2: herbicidal effect test by treatment during growing period in paddy rice cultivation (seven days after seeding); conditions: 120 g/10a active ingredient, assessed 14 days after treatment, dry weight vs untreated area
Procedure, shortened: (§2)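 Emulsion formulations, diluted in water, applied dropwise to flooded pots (about 3 cm water) 7 days post-seeding at 120 g a.i./10 ares. Weeds sown 30 seeds each, 0–1 cm deep in puddled paddy soil; greenhouse. Readout: % reduction in plant dry weight vs untreated, day 14, duplicates.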

Scirpus juncoides [5] = assay: as above; conditions: 120 g/10a active ingredient, assessed 14 days after treatment, dry weight vs untreated area
Procedure, shortened: as §2

[6] = system: broad leaf weeds (Lindernia pyxidaria and Monochoria vaginalis); assay: as above; conditions: 120 g/10a active ingredient, assessed 14 days after treatment, dry weight vs untreated area
Procedure, shortened: as §2

Amaranthus viridis [7] = assay: Test Example 4: herbicidal effect test by treatment of leave and stem in dry field farming (seven days after seeding); conditions: 120 g/10a active ingredient; emulsion sprayed seven days after seeding; evaluated 14 days after treatment
Description: (§3) This test was conducted in a double system per one agent solution concentration area, and the herbicidal rates (%) were determined by the following equation (Math. 1) on 14 days after the treatment with the agents. Herbicidal Rate (%)={1-(Average Dry Weight (g) of Plant of Treated Area)/(Average Dry Weight (g) of Plant of Untreated Area)}×100 [Math. 1]
(§4) Herbicidal Effect Test by Treatment of Leave and Stem in Dry Field Farming
(§5) Pots with a size of 36 cm^2 were filled with a dry field farming soil (alluvium). The soil of the top layer of 1 cm and seeds of weeds, namely southern crabgrass, Echinochloa crus-galli, Chenopodium album and Amaranthus viridis, 20 seeds each, were evenly mixed, and the top layer was gently pressed. Emulsions prepared using the compounds in Table 6 below according to Formulation Example 5 were diluted with water seven days after seeding, and the water-diluted agent solutions were sprayed to the soil surfaces at a ratio of 100 liters per 10 ares. The converted amount of the applied active ingredient corresponded to 120 g per 10 ares. The herbicidal effects were evaluated by the same standard as that in Test Example 1 on 14 days after the treatment with the agents. […] The compound numbers in Table 6 are the same as those in Table 1 and Table 2 above.

Chenopodium album [8] = assay: as above; conditions: 120 g/10a active ingredient; emulsion sprayed seven days after seeding; evaluated 14 days after treatment
Description: as §3, §4, §5

Echinochloa crus-galli [9] = assay: as above; conditions: 120 g/10a active ingredient; emulsion sprayed seven days after seeding; evaluated 14 days after treatment
Description: as §3, §4, §5

southern crabgrass [10] = assay: as above; conditions: 120 g/10a active ingredient; emulsion sprayed seven days after seeding; evaluated 14 days after treatment
Description: as §3, §4, §5

Amaranthus viridis [11] = assay: Test Example 3: herbicidal effect test by treatment of dry field farming soil (one day after seeding); conditions: 120 g/10a active ingredient, evaluated 14 days after treatment
Description: as §3
(§6) Herbicidal Effect Test by Treatment of Dry Field Farming Soil
as §5, with “Table 5” for “Table 6”, “water one day” for “water seven days”

Chenopodium album [12] = assay: as above; conditions: 120 g/10a active ingredient, evaluated 14 days after treatment
Description: as §3, §6
as §5, with “Table 5” for “Table 6”, “water one day” for “water seven days”

Echinochloa crus-galli [13] = assay: as above; conditions: 120 g/10a active ingredient, evaluated 14 days after treatment
Description: as §3, §6
as §5, with “Table 5” for “Table 6”, “water one day” for “water seven days”

southern crabgrass [14] = assay: as above; conditions: 120 g/10a active ingredient, evaluated 14 days after treatment
Description: as §3, §6
as §5, with “Table 5” for “Table 6”, “water one day” for “water seven days”

Row | Compound | Herbicidal rate (%) Echinochloa crus-galli (Echinochloa crus-galli [1]) [%] | Herbicidal rate (%) Scirpus juncoides (Scirpus juncoides [2]) [%] | Herbicidal rate (%) Lindernia pyxidaria [3] [%] | Herbicidal rate (%) Monochoria vaginalis [3] [%] | Herbicidal rate (%) Echinochloa crus-galli (Echinochloa crus-galli [4]) [%] | Herbicidal rate (%) Scirpus juncoides (Scirpus juncoides [5]) [%] | Herbicidal rate (%) Lindernia pyxidaria [6] [%] | Herbicidal rate (%) Monochoria vaginalis [6] [%] | herbicidal effect (herbicidal rate), Amaranthus viridis (Amaranthus viridis [7]) [%] | herbicidal effect (herbicidal rate), Chenopodium album (Chenopodium album [8]) [%] | herbicidal effect (herbicidal rate), Echinochloa crus-galli (Echinochloa crus-galli [9]) [%] | herbicidal effect (herbicidal rate), southern crabgrass (southern crabgrass [10]) [%] | herbicidal rate, Amaranthus viridis (Amaranthus viridis [11]) [%] | herbicidal rate, Chenopodium album (Chenopodium album [12]) [%] | herbicidal rate, Echinochloa crus-galli (Echinochloa crus-galli [13]) [%] | herbicidal rate, southern crabgrass (southern crabgrass [14]) [%]
1 | Cc1c(Cc2ccccc2N(S(=O)(=O)C(F)(F)F)S(=O)(=O)C(F)(F)F)c(=O)on1CC(C)c1ccccc1 (stereo not drawn) [Compound 1-1046] | 100 | 90 | 70 | 80 | 90 | 90 | 60 | 90 | 90 | 0 | 90 | 60 |  |  |  | 
2 | Cc1c(Cc2cc(F)ccc2N(S(=O)(=O)C(F)(F)F)S(=O)(=O)C(F)(F)F)c(=O)on1Cc1ccccc1 [Compound 1-32] | 80 | 90 | 80 | 90 | 90 | 90 | 80 | 90 | 40 | 60 | 0 | 40 |  |  |  | 
3 | Cc1c(Cc2ccccc2NS(=O)(=O)C(F)(F)F)c(=O)on1CC(F)(F)F [Compound 1-134] | 80 | 80 | 60 | 80 | 80 | 80 | 40 | 80 | 50 | 40 | 90 | 60 |  |  |  | 
4 | Cc1ccc(Cn2oc(=O)c(Cc3ccccc3NS(=O)(=O)C(F)(F)F)c2C)cc1 [Compound 1-191] | 90 | 90 | 100 | 90 | 90 | 90 | 80 | 80 | 80 | 40 | 90 | 40 |  |  |  | 
5 | CSCCn1oc(=O)c(Cc2ccccc2NS(=O)(=O)C(F)(F)F)c1C [Compound 1-162] | 100 | 100 | 100 | 100 | 90 | 80 | 70 | 80 | 50 | 60 | 90 | 60 |  |  |  | 
6 | CCCOC(=O)N(c1ccccc1Cc1c(C)n(C(C)CC)oc1=O)S(=O)(=O)C(F)(F)F (stereo not drawn) [Compound 1-632] | 90 | 90 | 90 | 90 | 90 | 90 | 90 | 90 | 40 | 40 | 90 | 90 |  |  |  | 
7 | CSCCCn1oc(=O)c(Cc2ccccc2N(S(=O)(=O)C(F)(F)F)S(=O)(=O)C(F)(F)F)c1C [Compound 1-1003] | 100 | 90 | 90 | 90 | 100 | 90 | 70 | 70 | 40 | 0 | 60 | 40 |  |  |  | 
8 | Cc1c(Cc2ccccc2N(S(=O)(=O)C(F)(F)F)S(=O)(=O)C(F)(F)F)c(=O)on1C(C)c1ccccc1 (stereo not drawn) [Compound 1-1030] | 90 | 90 | 100 | 100 | 90 | 90 | 90 | 90 | 40 | 40 | 90 | 40 |  |  |  | 
9 | CCCCn1oc(=O)c(Cc2ccccc2N(S(=O)(=O)C(F)(F)F)S(=O)(=O)C(F)(F)F)c1C [Compound 1-969] | 100 | 90 | 100 | 80 | 100 | 90 | 60 | 90 |  |  |  |  | 40 | 40 | 90 | 80
10 | Cc1c(Cc2ccccc2NS(=O)(=O)C(F)(F)F)c(=O)on1C1CCCc2ccccc21 (stereo not drawn) [Compound 1-224] | 100 | 90 | 100 | 100 | 90 | 80 | 60 | 80 |  |  |  |  | 100 | 90 | 100 | 100
11 | Cc1c(Cc2ccccc2N(S(=O)(=O)C(F)(F)F)S(=O)(=O)C(F)(F)F)c(=O)on1CCCc1ccccc1 [Compound 1-1048] | 90 | 80 | 80 | 60 | 90 | 40 | 60 | 60 |  |  |  |  | 40 | 40 | 40 | 0
